Experimental data reported in ChEMBL document CHEMBL1201862, “PubChem BioAssay data set” (2004).
The source made the active and inactive calls.

Columns and labels:
[1] = target: G-protein coupled receptor 55 (Homo sapiens, UniProt Q9Y2T6); experiment: inhibition of LPI-stimulated GPR55 beta-arrestin translocation – imaging, U2OS, beta-arrestin-GFP, LPI agonist, primary screen (AID 2013); format: functional;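 further: antagonist potency measured as reduced agonist-driven arrestin aggregation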
[2] = alpha-synuclein stem-loop luciferase translation blockers – H4 neuroglioma cells, luminescence, confirmation (AID 1988); format: functional, cell-based
[3] = luciferase reporter signal suppression in cells – H4 neuroglioma cells, luminescence, dose response (AID 1990); format: functional, cell-based
Vero = experiment: mammalian cell viability reduction – secondary assay, cytotoxicity control for West Nile virus antiviral project, dose response (AID 1650); format: functional; conditions: Chlorocebus sabaeus
[4] = Luminescence Cell-Based Dose Response HTS to Identify Inhibitors of 5'UTR Stem-Loop Driven Prion Protein mRNA Translation in H4 Neuroglioblastoma Cells. [Related pubchem assays: 1827 (Project Summary), 1813 (Primary HTS)]; format: functional
Estrogen receptor beta = Estrogen receptor beta (Homo sapiens, UniProt Q92731); experiment: blockers of SRC-3 recruitment to ERβ – biochemical, ELISA, streptavidin-HRP readout, orthogonal assay, confirmation (AID 1060)
Leucine aminopeptidase = target: T1, Leucine aminopeptidase (Plasmodium falciparum 3D7, UniProt Q8IL11); experiment: P. falciparum M17LAP inhibitors, primary screen, biochemical, fluorogenic H-Leu-NHMec substrate, 1536-well (AID 1619); format: functional
T1 sequence (Q8IL11 whole entry): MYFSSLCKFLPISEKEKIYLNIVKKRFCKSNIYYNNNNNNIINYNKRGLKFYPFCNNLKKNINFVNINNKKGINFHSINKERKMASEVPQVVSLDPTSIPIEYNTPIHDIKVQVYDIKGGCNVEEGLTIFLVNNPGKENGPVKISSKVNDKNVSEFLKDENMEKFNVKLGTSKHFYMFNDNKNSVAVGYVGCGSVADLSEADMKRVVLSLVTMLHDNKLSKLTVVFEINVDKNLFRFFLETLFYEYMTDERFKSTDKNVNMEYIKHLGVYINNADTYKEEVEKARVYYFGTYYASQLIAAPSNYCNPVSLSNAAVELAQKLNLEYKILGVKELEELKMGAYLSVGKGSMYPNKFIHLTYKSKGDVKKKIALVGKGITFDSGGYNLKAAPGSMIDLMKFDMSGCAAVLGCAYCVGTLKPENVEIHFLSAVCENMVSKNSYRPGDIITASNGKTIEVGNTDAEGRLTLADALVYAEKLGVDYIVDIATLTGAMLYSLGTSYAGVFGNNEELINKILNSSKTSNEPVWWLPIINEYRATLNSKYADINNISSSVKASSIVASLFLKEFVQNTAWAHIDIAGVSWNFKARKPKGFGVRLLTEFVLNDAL

[5] = target: T2, Histone-lysine N-methyltransferase NSD2 (Homo sapiens, UniProt O96028); format: biochemical
T2 sequence (O96028 whole entry): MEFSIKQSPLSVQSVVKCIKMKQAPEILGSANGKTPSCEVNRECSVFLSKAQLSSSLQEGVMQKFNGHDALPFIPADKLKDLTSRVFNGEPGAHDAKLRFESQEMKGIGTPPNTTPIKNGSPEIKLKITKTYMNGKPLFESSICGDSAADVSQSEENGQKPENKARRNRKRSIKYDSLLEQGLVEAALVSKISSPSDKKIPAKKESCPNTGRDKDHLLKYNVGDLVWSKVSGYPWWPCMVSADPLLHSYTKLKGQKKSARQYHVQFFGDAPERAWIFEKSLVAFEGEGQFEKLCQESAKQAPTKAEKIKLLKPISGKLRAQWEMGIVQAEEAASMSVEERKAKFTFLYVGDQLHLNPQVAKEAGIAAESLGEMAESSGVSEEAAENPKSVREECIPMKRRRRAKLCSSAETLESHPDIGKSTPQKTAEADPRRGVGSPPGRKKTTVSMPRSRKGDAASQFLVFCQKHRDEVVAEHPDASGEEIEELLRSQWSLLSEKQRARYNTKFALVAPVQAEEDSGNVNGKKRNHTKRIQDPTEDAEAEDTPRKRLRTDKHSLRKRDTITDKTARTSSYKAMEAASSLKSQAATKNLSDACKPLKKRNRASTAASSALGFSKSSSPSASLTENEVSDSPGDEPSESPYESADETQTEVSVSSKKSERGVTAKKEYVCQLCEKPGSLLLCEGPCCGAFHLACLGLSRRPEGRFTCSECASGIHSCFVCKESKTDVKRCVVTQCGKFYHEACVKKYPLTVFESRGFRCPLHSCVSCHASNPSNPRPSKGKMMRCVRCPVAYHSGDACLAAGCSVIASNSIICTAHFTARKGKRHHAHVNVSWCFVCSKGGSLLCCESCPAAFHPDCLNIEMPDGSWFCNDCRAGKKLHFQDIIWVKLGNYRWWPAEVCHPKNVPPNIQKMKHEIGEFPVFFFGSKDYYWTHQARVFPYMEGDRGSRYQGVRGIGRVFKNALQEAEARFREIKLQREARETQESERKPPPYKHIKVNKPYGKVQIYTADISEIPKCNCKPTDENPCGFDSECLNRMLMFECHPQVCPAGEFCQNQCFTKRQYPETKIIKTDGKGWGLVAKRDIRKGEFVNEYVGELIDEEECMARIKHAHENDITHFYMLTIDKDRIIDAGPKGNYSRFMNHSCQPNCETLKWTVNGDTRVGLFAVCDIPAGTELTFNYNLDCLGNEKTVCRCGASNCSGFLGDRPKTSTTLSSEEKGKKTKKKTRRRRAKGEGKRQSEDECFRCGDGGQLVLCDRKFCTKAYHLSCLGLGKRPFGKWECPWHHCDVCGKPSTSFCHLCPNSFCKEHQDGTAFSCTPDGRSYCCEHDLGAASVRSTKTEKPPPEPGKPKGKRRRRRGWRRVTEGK

[6] = target: T3, DNA repair protein RAD52 homolog (Homo sapiens, UniProt P43351); format: functional, biochemical
T3 sequence (P43351 whole entry): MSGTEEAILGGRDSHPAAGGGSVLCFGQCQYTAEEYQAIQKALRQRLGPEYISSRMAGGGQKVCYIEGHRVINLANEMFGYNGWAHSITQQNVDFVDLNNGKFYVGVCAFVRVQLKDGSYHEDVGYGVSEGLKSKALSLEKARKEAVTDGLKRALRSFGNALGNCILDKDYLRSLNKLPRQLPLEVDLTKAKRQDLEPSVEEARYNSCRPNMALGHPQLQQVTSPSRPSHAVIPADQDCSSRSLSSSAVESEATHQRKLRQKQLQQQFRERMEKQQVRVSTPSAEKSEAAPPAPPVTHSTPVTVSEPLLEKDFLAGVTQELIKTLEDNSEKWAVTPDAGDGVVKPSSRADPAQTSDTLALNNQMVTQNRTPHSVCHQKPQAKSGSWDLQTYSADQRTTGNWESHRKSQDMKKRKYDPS

[7] = target: Glyceraldehyde-3-phosphate dehydrogenase (Homo sapiens, UniProt P04406)
[8] = target: T4, Polyadenylate-binding protein 1 (Homo sapiens, UniProt P11940); experiment: MLLE binding blockers, Cy5 peptide tracer – biochemical, fluorescence polarization, Cy5-PAM2 peptide, secondary, miRNA deadenylation inhibitor project, dose response (AID 602260); format: functional; conditions: read-out: IC50_Mean
[9] = target: T4, Polyadenylate-binding protein 1; experiment: MLLE domain peptide-binding blockers, IC50 – biochemical, fluorescence polarization, FITC-PAM2 peptide, dose response (AID 602259); format: functional; conditions: read-out: IC50_Mean
[10] = A cytotoxicity screen of small molecule inhibitors of the PhoP region in Salmonella typhi identified in the primary screen. [Related pubchem assays: 1850, 1864, 1985 ]; format: functional
[11] = viability of uninfected HEp-2 cells – cell-based, HTS, cytotoxicity control for RSV inhibitor project, dose response (AID 2410); format: functional; conditions: human respiratory syncytial virus
[12] = target: T5, Replicative DNA helicase DnaB (Mycobacterium tuberculosis, UniProt P9WMR3); experiment: DnaB intein splicing inhibitors, dose response, biochemical, cell-free fluorescence (AID 449749); format: functional
T5 sequence (P9WMR3 whole entry): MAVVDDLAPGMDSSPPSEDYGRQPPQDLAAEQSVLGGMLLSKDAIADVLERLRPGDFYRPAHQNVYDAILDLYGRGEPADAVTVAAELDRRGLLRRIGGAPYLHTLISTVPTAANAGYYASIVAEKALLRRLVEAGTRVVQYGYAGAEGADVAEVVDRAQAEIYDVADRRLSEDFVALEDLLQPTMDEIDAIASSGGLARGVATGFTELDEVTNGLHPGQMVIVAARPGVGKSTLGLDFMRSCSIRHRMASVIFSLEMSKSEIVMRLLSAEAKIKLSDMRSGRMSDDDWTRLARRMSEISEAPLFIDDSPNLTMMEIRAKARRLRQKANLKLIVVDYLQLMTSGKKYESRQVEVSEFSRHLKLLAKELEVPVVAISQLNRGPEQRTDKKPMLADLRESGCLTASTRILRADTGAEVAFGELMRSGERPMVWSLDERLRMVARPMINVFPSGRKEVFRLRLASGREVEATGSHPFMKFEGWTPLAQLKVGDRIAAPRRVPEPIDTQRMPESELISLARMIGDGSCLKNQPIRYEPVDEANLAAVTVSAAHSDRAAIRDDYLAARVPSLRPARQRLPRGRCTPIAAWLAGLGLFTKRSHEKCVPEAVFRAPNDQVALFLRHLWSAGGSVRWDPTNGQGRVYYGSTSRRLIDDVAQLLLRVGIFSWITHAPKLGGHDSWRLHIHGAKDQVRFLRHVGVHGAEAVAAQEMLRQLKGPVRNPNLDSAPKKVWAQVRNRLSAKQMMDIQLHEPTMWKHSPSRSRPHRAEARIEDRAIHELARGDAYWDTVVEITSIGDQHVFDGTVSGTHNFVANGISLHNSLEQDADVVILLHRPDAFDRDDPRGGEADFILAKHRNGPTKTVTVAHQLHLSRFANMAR

Protein RecA = target: T6, Protein RecA (Mycobacterium tuberculosis, UniProt P9WHJ3); experiment: Fluorescence Cell-Free Homogeneous Dose Retest to Identify Inhibitors of RecA-Intein Splicing Activity. [Related pubchem assays (depositor defined):AID2097, AID2223, AID489010, AID492950]; format: functional
T6 sequence (P9WHJ3 whole entry): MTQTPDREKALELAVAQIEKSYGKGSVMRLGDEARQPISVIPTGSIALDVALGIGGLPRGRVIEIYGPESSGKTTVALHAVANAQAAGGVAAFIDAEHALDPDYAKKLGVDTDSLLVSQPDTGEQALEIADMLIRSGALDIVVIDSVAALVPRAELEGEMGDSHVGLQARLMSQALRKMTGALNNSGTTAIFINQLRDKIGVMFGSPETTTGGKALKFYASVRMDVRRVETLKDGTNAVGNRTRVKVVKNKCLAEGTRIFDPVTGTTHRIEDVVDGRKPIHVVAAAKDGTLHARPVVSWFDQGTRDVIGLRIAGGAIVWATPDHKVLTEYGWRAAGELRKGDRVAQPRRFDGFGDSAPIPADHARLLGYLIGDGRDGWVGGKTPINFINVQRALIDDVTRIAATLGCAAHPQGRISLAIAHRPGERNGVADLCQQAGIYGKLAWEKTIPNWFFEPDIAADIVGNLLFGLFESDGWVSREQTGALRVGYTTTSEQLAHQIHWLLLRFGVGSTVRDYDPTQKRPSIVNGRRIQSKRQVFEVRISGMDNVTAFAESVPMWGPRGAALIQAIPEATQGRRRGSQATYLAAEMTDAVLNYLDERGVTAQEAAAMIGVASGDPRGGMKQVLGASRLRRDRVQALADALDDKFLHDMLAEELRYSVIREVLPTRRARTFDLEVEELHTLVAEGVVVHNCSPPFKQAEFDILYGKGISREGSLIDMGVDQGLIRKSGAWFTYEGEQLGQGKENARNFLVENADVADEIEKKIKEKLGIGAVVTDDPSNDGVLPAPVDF

Genome polyprotein = Genome polyprotein (dengue virus type 2, UniProt P29990); experiment: flavivirus cap methylation enzyme inhibition – biochemical, confirmation dose response, primary screen (AID 588689); format: functional
[13] = general mammalian cell viability loss – inhibitor set, cherry-pick, set 2, cytotoxicity control for miR-122 modulator project, dose response (AID 720697); format: functional, cell-based

Sequence of Glyceraldehyde-3-phosphate dehydrogenase (P04406 whole entry): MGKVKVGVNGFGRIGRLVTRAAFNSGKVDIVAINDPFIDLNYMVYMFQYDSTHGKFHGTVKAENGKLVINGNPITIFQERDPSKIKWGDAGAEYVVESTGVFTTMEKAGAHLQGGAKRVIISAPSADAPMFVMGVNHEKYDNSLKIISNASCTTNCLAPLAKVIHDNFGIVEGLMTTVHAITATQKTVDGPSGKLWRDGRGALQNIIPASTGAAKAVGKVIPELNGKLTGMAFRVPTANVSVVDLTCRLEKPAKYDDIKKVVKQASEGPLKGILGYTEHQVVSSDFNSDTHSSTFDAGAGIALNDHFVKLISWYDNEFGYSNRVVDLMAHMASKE
Sequence of Estrogen receptor beta (Q92731 whole entry): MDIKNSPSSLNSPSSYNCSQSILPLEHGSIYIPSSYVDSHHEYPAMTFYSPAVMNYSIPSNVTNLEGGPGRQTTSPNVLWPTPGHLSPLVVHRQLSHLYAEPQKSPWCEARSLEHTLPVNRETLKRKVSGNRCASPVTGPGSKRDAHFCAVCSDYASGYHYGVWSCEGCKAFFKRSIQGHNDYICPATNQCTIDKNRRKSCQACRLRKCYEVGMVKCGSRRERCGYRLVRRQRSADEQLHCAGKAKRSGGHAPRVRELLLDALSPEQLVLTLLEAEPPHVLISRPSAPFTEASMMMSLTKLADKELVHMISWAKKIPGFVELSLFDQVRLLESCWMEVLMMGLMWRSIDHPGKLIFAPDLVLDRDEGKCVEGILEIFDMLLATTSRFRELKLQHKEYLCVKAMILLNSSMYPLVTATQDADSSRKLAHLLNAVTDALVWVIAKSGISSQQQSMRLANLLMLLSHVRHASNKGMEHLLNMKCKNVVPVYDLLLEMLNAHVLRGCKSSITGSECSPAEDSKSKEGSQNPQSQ
Sequence of G-protein coupled receptor 55 (Q9Y2T6 whole entry): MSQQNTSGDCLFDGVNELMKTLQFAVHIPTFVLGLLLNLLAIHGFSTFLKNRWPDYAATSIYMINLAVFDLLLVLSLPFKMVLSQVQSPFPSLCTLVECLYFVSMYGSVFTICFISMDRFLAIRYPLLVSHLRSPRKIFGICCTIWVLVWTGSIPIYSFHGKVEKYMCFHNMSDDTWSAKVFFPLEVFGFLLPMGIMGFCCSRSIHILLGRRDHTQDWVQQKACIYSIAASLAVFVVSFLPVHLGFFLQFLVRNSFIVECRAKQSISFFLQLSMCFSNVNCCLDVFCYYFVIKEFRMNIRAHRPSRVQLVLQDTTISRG
T4 sequence (P11940 whole entry, the tested form may be a part): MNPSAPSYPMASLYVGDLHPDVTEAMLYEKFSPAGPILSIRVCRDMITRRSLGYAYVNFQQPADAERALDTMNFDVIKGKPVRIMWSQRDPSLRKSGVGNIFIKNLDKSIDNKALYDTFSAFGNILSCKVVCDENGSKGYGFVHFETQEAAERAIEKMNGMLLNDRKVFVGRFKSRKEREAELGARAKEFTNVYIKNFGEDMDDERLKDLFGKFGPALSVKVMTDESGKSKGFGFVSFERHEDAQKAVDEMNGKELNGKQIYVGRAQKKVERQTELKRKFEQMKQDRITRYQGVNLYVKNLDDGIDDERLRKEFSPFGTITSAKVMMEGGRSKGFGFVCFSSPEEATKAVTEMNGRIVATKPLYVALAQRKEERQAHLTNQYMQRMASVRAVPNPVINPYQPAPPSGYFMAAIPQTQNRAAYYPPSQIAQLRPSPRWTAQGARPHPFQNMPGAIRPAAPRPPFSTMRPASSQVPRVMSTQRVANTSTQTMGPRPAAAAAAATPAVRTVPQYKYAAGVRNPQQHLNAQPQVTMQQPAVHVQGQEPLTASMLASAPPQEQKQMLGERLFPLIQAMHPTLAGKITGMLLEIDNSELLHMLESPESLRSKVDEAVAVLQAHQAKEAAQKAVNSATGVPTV
Sequence of Genome polyprotein (P29990 2492-3391 limits assumed): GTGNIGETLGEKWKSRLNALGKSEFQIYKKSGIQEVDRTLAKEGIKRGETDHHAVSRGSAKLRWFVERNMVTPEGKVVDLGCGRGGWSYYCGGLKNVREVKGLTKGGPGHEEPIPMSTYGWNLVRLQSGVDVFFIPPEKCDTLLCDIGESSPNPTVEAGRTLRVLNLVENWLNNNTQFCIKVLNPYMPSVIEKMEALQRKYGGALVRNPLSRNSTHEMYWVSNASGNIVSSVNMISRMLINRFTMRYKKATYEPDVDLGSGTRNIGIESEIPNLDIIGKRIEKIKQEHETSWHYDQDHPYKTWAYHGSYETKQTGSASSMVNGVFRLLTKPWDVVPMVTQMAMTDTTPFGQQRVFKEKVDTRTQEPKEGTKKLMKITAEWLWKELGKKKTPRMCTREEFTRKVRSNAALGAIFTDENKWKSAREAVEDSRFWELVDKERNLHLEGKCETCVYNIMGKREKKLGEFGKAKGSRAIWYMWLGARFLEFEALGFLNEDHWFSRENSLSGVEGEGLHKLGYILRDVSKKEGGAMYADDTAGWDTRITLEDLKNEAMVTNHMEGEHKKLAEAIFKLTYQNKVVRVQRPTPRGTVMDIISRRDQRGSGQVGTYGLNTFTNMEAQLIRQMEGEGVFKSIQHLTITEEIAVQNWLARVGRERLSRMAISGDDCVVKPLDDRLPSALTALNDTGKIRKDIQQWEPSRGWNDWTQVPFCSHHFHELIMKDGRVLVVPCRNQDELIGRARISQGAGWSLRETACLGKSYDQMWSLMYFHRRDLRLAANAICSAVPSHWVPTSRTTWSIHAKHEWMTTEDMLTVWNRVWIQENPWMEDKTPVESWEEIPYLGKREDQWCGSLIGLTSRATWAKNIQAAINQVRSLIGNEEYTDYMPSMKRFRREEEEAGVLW

## CSc1nnc(-c2sccc2OCc2ccccc2)n1C
[1]
  IC50: 2.71 µM (active)

## CN1CCN(c2nc3ccccc3nc2C(C#N)S(=O)(=O)c2ccccc2)CC1 (configuration not stated)
[2]
  EC50: 18.8 µM (active)
[3]
  EC50: > 120 µM (not active)
Vero
  CC50: 4.16 µM (active)
[4]
  EC50: > 120 µM (not active)

## CCn1cc(-c2cc(C(F)(F)F)n3nc(C(=O)O)cc3n2)c(C)n1
Estrogen receptor beta
  IC50: 3.41 µM (not active)

## O=C(O)COc1ccc(Br)cc1/C=C1/SC(=O)N(CC(=O)N2CCCC2)C1=O
Leucine aminopeptidase
  IC50: 34.8 µM (active)

## CCCN(CCC)CCCN=C(S)Nc1ccc2nc(N3CCN(CC)CC3)cc(C)c2c1
[5]
  AC50: > 20 µM (inactive)
[6]
  AC50: 5.26 µM (active)

## COc1ccc(Br)cc1S(=O)(=O)Nc1cnc2ccccc2c1
[7]
  IC50: > 100 µM (not active)

## Cc1nnc(N2C(=O)c3oc4ccccc4c(=O)c3C2c2ccco2)s1 (configuration not stated)
[8]
  IC50: > 66 µM (inactive)
Estrogen receptor beta
  IC50: 0.0501 µM (not active)
[9]
  IC50: > 66 µM (inactive)

## O=C(O)CC/C(=N/NC(=O)c1cccs1)c1ccccc1
Leucine aminopeptidase
  IC50: 36 µM (active)

## Cc1cc(C)nc(SCC(=O)Nc2sc3c(c2C#N)CCC(C)C3)n1 (configuration not stated)
[10]
  EC50: > 50 µM (active)

## Cc1ccc(C)c(Nc2cc(C)nc3ccccc23)c1
[10]
  EC50: > 50 µM (active)
[11]
  CC50: 16.9 µM (active)

## Cc1[nH]n(-c2ccccc2)c(=O)c1C(c1cccc([N+](=O)[O-])c1O)c1c(C)[nH]n(-c2ccccc2)c1=O
[12]
  AC50: 1.15 µM (active)
Protein RecA
  EC50: 0.931 µM (active)
[10]
  EC50: > 50 µM (active)
Genome polyprotein
  IC50: 31.6 µM (active)

## O=C(Nc1ccc(Cl)cc1-c1nc2ccccc2s1)c1ccco1
Vero
  CC50: 13.3 µM (active)

## COCC(=O)NC[C@H]1[C@@H](c2ccc(C3=CCCC3)cc2)[C@@H](CO)N1C(=O)C1CC1
[13]
  AC50: 9.14 µM (active)

## O=C(c1ccccc1)N1N=C(c2cccs2)CC1c1ccccc1O (configuration not stated)
[1]
  IC50: 2.72 µM (active)

## COc1ccc(-n2cnc3c(sc4nc(N5CCOCC5)c5c(c43)CCCC5)c2=O)cc1
[10]
  EC50: > 50 µM (active)

## O=C1C(Cl)=C(N2CCN(c3ccccc3)CC2)C(=O)N1c1ccc(C(F)(F)F)cc1
[7]
  IC50: > 50 µM (inconclusive)

## Cc1ccc(C(=O)Nc2nc(=O)n(C(=O)CC(C)C)s2)cc1
Leucine aminopeptidase
  IC50: 24.5 µM (active)
